Paper PMC2990605 (British Journal of Cancer, 2010)

Key:
[1] = in vivo
[2] = tested on: intracellular aminopeptidases; settings: cited from earlier work
[3] = set-up: method as in Talmadge et al, 1986; Ichinose et al, 2003; settings: ref Talmadge et al, 1986; Ichinose et al, 2003; cited from earlier work

overall exposure versus dose [1]	SMILES	inhibition of intracellular aminopeptidases [2]	immunostimulatory activity [3]
increased in a dose proportional manner	CC(C)C[C@@H](C(=O)N[C@H](C(=O)O)c1ccccc1)[C@H](O)C(=O)NO [CHR-79888]	potent inhibitor	–
–	CC(C)C[C@H](NC(=O)[C@@H](O)[C@H](N)Cc1ccccc1)C(=O)O [bestatin]	–	immunostimulatory activity has been described
